Results from publication PMC8092326 (mBio, 2021).
Several values for one entry are separate records, joined by “and”; a condition that tells them apart may be missing. Identical values can stand only once. Entries after “also recorded” stand apart in the source; their conditions may differ. Like-named read-outs stand apart in the source and are kept apart here. *1 amine or outer side, *2 acyl side, *3 side chain or, on linkers, in order; H or OH if unused. Where a SMILES comes first, the peptide text is derived from it. Bridges are numbered along the chain shown (N, C = ends). Roman numbers before positions name the chains, in order. [ ]: non-standard residue; d: D form. Actinocin(9to1) = Cc1c2oc3c(C)ccc(C(=O)[*:1])c3nc-2c(C(=O)[*:2])c(N)c1=O; NMeV = CN[C@H](C(=O)O)C(C)C; Sar = CNCC(=O)O

What was measured:
[1] = molecular target: T1, human ACE2 (Homo sapiens, UniProt Q9BYF1); assay: biochemical; assay type: binding; details: immobilized recombinant human ACE2; ± one SD; read-out: KD (nM) determined by SPR
T1 construct: purchased Assay Matrix; R&D Systems

[2] = molecular target: T2, RBD-mimic1 peptide-ACE2 interaction (Homo sapiens, UniProt Q9BYF1); assay: SPR competition (ABA injection) between compound and RBD-mimic1 peptide for immobilized ACE2; assay type: binding; details: for inhibition at 1 µM: read-out: 1:1 competition between compound vs RBD-mimic1 peptide at 1 μM
T2 construct: purchased Assay Matrix; R&D Systems (ACE2); Mimotopes, Australia (peptide)

[3] = molecular target: human ACE2-VLP spike protein interaction (UniProt P0DTC2+Q9BYF1); assay type: binding, SARS-CoV-2
[4] = tested on: SARS-CoV-2 infection of Vero-E6 cells; details: for Screening data: 48 h
[5] = cited from earlier work
[6] = in vitro; details: African green monkey
[7] = molecular target: T3, SARS-CoV-2 spike protein (Severe acute respiratory syndrome coronavirus 2, UniProt P0DTC2); assay: biochemical; assay type: binding
T3 construct: made in house; host or cells: HEK 293 cells

[8] = tested on: SARS-CoV-2 infection of Vero-E6 cells; assay: Dose-response inhibition of SARS-CoV-2 infection of Vero-E6 cells (24 h, in situ ELISA); assay type: cell-based; details: for IC50: Severe acute respiratory syndrome coronavirus 2, Vero C1008, 24 h infection, Vero-E6, MOI 0.12, read-out: IC50 (μM) Mean ± SD; for SI (selectivity index, CC50/IC50): Vero-E6 cells
[9] = tested on: Vero-E6 cells
[10] = indicative of published Cmax values, ref not given, read-out: Cmax

T2 sequence (Q9BYF1 18-740 limits assumed): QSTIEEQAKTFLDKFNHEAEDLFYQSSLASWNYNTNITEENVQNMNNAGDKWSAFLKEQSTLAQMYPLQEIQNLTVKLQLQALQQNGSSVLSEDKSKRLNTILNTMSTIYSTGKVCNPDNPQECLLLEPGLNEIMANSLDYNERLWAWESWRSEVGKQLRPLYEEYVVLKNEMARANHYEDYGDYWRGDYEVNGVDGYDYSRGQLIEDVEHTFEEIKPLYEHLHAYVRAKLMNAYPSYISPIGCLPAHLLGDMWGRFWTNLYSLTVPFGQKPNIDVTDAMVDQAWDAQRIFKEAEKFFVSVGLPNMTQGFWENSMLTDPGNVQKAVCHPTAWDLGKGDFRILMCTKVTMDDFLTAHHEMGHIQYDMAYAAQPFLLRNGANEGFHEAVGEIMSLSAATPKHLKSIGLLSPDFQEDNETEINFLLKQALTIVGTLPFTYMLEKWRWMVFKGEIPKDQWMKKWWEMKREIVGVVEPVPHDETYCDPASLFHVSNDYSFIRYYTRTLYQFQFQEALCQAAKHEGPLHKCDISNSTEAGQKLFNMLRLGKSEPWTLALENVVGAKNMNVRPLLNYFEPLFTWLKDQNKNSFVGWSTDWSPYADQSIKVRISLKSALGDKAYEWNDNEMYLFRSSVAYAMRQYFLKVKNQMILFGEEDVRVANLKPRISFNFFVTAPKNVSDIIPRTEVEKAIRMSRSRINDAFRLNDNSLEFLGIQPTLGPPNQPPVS
Chain of human ACE2-VLP spike protein interaction (Q9BYF1 18-740, one chain of several): as the sequence (Q9BYF1 18-740 limits assumed) above
T1 sequence (Q9BYF1 18-805): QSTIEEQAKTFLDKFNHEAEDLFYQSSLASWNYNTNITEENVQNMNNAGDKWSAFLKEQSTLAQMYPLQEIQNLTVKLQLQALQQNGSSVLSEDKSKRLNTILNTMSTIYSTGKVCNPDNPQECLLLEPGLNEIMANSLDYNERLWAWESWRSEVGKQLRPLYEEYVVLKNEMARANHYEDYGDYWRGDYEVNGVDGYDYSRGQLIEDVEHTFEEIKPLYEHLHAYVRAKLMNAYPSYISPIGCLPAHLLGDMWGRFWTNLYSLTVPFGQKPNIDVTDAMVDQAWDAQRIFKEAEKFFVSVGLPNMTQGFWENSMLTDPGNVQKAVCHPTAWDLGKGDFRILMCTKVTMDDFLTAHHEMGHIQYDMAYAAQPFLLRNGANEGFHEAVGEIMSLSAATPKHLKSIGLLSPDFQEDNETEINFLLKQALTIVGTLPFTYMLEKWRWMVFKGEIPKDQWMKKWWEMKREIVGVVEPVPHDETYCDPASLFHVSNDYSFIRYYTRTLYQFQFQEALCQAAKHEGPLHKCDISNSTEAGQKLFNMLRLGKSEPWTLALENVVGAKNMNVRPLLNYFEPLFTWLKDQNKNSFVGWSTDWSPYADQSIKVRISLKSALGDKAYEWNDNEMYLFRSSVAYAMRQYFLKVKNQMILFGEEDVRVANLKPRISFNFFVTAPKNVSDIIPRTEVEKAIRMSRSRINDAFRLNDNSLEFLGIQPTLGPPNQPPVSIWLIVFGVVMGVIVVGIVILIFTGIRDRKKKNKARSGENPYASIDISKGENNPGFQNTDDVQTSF

Compound: C[C@H]1O[C@@H](O[C@H]2[C@@H](O)C[C@H](O[C@H]3[C@@H](O)C[C@H](O[C@H]4CC[C@@]5(C)[C@H](CC[C@@H]6[C@@H]5C[C@@H](O)[C@]5(C)[C@@H](C7=CC(=O)OC7)CC[C@]65O)C4)O[C@@H]3C)O[C@@H]2C)C[C@H](O)[C@@H]1O [Digoxin]
- Kd [1]: 1250 ± 97.2 nM
- inhibition at 1 µM [2]: 27.6%
- 1:1 Competition between compound vs CoV2 VLP [3]: 31.5% ± 4.55

Compound: COC(=O)N[C@H](C(=O)N1CC2(CC2)C[C@H]1c1ncc(-c2ccc3c(c2)C(F)(F)c2cc(-c4ccc5nc([C@@H]6[C@H]7CC[C@H](C7)N6C(=O)[C@@H](NC(=O)OC)C(C)C)[nH]c5c4)ccc2-3)[nH]1)C(C)C [Ledipasvir]
- Kd [1]: 417 ± 50.7 nM
- inhibition at 1 µM [2]: 79.4%
- 1:1 Competition between compound vs CoV2 VLP [3]: 84.9% ± 7.3
- Toxicity to Vero-E6 cells (in words, discussion) [4]: toxic
- Screening data ([4]; 400 μM): 400 μM: inactive
- Cmax [5, 10]: 406 nM
- CC50 [6]: > 1000 µM

Compound: N[C@@H](Cc1ccc(O)c(O)c1)C(=O)O [Levodopa]
- Kd [1]: 13.6 ± 0.97 nM
- inhibition at 1 µM [2]: 36.4%
- 1:1 Competition between compound vs CoV2 VLP [3]: 42.1% ± 5.17

Compound: COC[C@H]1C[C@@H](c2ncc(-c3ccc4c(c3)COc3cc5c(ccc6nc([C@@H]7CC[C@H](C)N7C(=O)[C@@H](NC(=O)OC)C(C)C)[nH]c65)cc3-4)[nH]2)N(C(=O)[C@H](NC(=O)OC)c2ccccc2)C1 [Velpatasvir]
- Kd [1]: 24.9 ± 4.24 nM
- inhibition at 1 µM [2]: 61.4%
- 1:1 Competition between compound vs CoV2 VLP [3]: 68.1% ± 9.44
- Screening result at the highest concentration tested [4]: toxic
- Toxicity to Vero-E6 cells (in words, discussion) [4]: toxic
- Screening data ([4]; 100 μM): 500 μM: toxic, 100 μM: inactive
- Screening data ([4]; 500 μM): 500 μM: toxic, 100 μM: inactive
- Cmax [5, 10]: 293 ± 61.2 nM

Compound: COc1cc(-c2ccc(/N=N/c3ccc4c(S(=O)(=O)O)cc(S(=O)(=O)O)c(N)c4c3O)c(OC)c2)ccc1/N=N/c1ccc2c(S(=O)(=O)O)cc(S(=O)(=O)O)c(N)c2c1O [Chicago sky blue]
- Kd [1]: 349 ± 29.8 nM
- inhibition at 1 µM [2]: 2.47%
- 1:1 Competition between compound vs CoV2 VLP [3]: 7.29% ± 1.64

Compound: Epigallocatechin-3-gallate
- 1:1 competition between compound vs RBD-mimic1 peptide at 1 μM ([2]; 1:1 ratio at 1 μM, immobilized ACE2): 28.9% ± 1.43
- 1:1 Competition between compound vs CoV2 VLP [3]: 33.8% ± 4.67

Compound: C[C@H]1O[C@@H](O[C@H]2[C@@H](O)C[C@H](O[C@H]3[C@@H](O)C[C@H](O[C@H]4CC[C@@]5(C)[C@H](CC[C@@H]6[C@@H]5CC[C@]5(C)[C@@H](C7=CC(=O)OC7)CC[C@]65O)C4)O[C@@H]3C)O[C@@H]2C)C[C@H](O)[C@@H]1O [Digitoxin]
- Kd [1]: 1480 ± 87.6 nM
- inhibition at 1 µM [2]: 25.1%
- 1:1 Competition between compound vs CoV2 VLP [3]: 23.6% ± 4.25

Compound: CCc1c2c(nc3ccc(OC(=O)N4CCC(N5CCCCC5)CC4)cc13)-c1cc3c(c(=O)n1C2)COC(=O)[C@]3(O)CC [Irinotecan]
- Kd [1]: 825 ± 112 nM
- Inhibition of the RBD-mimic1 peptide-ACE2 interaction (in words) ([2]; 1:1 ratio at 1 μM): complete inhibition; also recorded: complete blocking
- inhibition at 1 µM [2]: 100%
- 1:1 Competition between compound vs CoV2 VLP [3]: 100% ± 9.17
- Toxicity to Vero-E6 cells (in words, discussion) [4]: toxic

Compound: Cc1c2oc3c(C)ccc(C(=O)N[C@@H]4C(=O)N[C@H](C(C)C)C(=O)N5CCC[C@H]5C(=O)N(C)CC(=O)N(C)[C@@H](C(C)C)C(=O)O[C@@H]4C)c3nc-2c(C(=O)N[C@@H]2C(=O)N[C@H](C(C)C)C(=O)N3CCC[C@H]3C(=O)N(C)CC(=O)N(C)[C@@H](C(C)C)C(=O)O[C@@H]2C)c(N)c1=O [Dactinomycin] (I: T[dV]P[Sar][NMeV] / II: T[dV]P[Sar][NMeV]; ester I:1-I:C, II:1-II:C; linker I:N-II:N via Actinocin(9to1))
- Blocking (%) [3]: 69.7 ± 1.8%
- Initial SPR screening for binding to the VLP spike protein [7]: binding

Compound: Cc1cc(O)c(C(=O)N[C@@H](C(=O)N[C@@H]2C(=O)N3C(C(=O)O)=C(CSc4nnnn4C)CS[C@H]23)c2ccc(O)cc2)cn1 [Cefpiramide]
- Blocking (%) [3]: 81.9% and 81.9 ± 8.4%
- Initial SPR screening for binding to the VLP spike protein [7]: binding
- Kd [7]: 330 nM
- IC50 [8]: > 1500 µM
- Activity against SARS-CoV-2 infection in dose-response experiments ([8]; at […]): inactive
- Cytotoxicity in screening at the highest concentration tested [4]: no apparent cytotoxicity
- Screening result at the highest concentration tested [4]: active
- Screening data ([4]; 800 μM): 800 μM: ∼50% active
- Cmax [5, 10]: 88000 nM
- Cmax ([5]; intravenous, maximum dose 2,000 mg, single dose, read-out: Cmax): 205000 nM
- CC50 [6]: > 1000 µM

Compound: CC#CC(=O)N1CCC[C@H]1c1nc(-c2ccc(C(=O)Nc3ccccn3)cc2)c2c(N)nccn12 [Acalabrutinib]
- Kd [1]: 25.7 ± 0.91 nM
- inhibition at 1 µM [2]: 77.4%
- 1:1 Competition between compound vs CoV2 VLP [3]: 81.2% ± 12.9
- IC50 [8]: 184 µM
- SI (selectivity index, CC50/IC50) [8]: 2.2
- Screening result at the highest concentration tested [4]: toxic
- Screening data ([4]; 100 μM): 100 μM: inactive
- Cmax [5, 10]: 1770 nM
- CC50 [6]: 406 ± 21.2 µM

Compound: COc1ccc2c(O[C@@H]3C[C@H]4C(=O)N[C@]5(C(=O)NS(=O)(=O)C6CC6)C[C@H]5/C=C\CCCCN(C)C(=O)[C@@H]4C3)cc(-c3nc(C(C)C)cs3)nc2c1C [Simeprevir]
- Blocking (%) [3]: 88.6 ± 7.2%
- Screening result at the highest concentration tested [4]: toxic
- Toxicity to Vero-E6 cells (in words, discussion) [4]: toxic
- Screening data ([4]; 10 μM): 100 μM: toxic, 10 μM: inactive
- Screening data ([4]; 100 μM): 100 μM: toxic, 10 μM: inactive
- Cmax [5, 10]: 2590 nM
- CC50 [6]: 16.4 ± 0.8 µM

Compound: Cc1ccc(NC(=O)C2(c3ccc4c(c3)OC(F)(F)O4)CC2)nc1-c1cccc(C(=O)O)c1 [Lumacaftor]
- Blocking (%) [3]: 71.4 ± 3.1%
- Kd [7]: 1510 nM
- IC50 [8]: 84 ± 3.7 µM
- SI (selectivity index, CC50/IC50) [8]: 3.7
- Cytotoxicity in screening at the highest concentration tested [4]: no apparent cytotoxicity
- Screening result at the highest concentration tested [4]: active
- Cmax [5, 10]: 5420 nM
- CC50 [6]: 314 ± 22.7 µM

Compound: Cc1ccc(C(=O)Nc2ccc(S(=O)(=O)O)c3cc(S(=O)(=O)O)cc(S(=O)(=O)O)c23)cc1NC(=O)c1cccc(NC(=O)Nc2cccc(C(=O)Nc3cc(C(=O)Nc4ccc(S(=O)(=O)O)c5cc(S(=O)(=O)O)cc(S(=O)(=O)O)c45)ccc3C)c2)c1 [Suramin]
- IC50 [8]: 46.2 ± 1.6 µM
- SI (selectivity index, CC50/IC50) [8]: >21.6
- Antiviral potency [4]: 100%
- Cmax [5, 10]: 1890 nM
- CC50 [6]: > 1000 µM

Compound: CC1(C)CCC(CN2CCN(c3ccc(C(=O)NS(=O)(=O)c4ccc(NCC5CCOCC5)c([N+](=O)[O-])c4)c(Oc4cnc5[nH]ccc5c4)c3)CC2)=C(c2ccc(Cl)cc2)C1 [Venetoclax]
- Kd [1]: 290 ± 31.1 nM
- inhibition at 1 µM [2]: 66.3%
- 1:1 Competition between compound vs CoV2 VLP [3]: 69.1% ± 7.31
- Screening result at lower concentrations [4]: inactive
- Screening result at the highest concentration tested [4]: toxic
- Screening data ([4]; 10 μM): 10 μM: 40 % active
- Cmax [5, 10]: 2400 ± 1300 nM
- CC50 [6]: 4.9 ± 2.2 µM

Compound: CS(=O)(=O)c1cccc(C[C@H](NC(=O)c2c(Cl)cc3c(c2Cl)CCN(C(=O)c2ccc4ccoc4c2)C3)C(=O)O)c1 [Sodium lifitegrast]
- Blocking (%) [3]: 99.8% and 99.8 ± 6.4%
- Kd [7]: 1.92 nM
- IC50 [8]: 1300 µM
- SI (selectivity index, CC50/IC50) [8]: >3.9
- Cytotoxicity in screening at the highest concentration tested [4]: no apparent cytotoxicity
- Screening result at the highest concentration tested [4]: active
- Cytotoxicity toward Vero-E6 cells [9]: noncytotoxic
- Cmax ([5]; in blood, indicative of published Cmax values, ref not given, read-out: Cmax in blood): 2.7 ± 2.1 nM
- Cmax ([5]; in tears, indicative of published Cmax values, ref not given, read-out: Cmax in tears (converted)): 143000 nM
- CC50 [6]: > 5000 µM

Compound: CO[C@H]1C[C@@H]2CC[C@@H](C)[C@@](O)(O2)C(=O)C(=O)N2CCCC[C@H]2C(=O)O[C@H]([C@H](C)C[C@@H]2CC[C@H](n3cnnn3)[C@H](OC)C2)CC(=O)[C@H](C)/C=C(\C)[C@@H](O)[C@@H](OC)C(=O)[C@H](C)C[C@H](C)/C=C/C=C/C=C/1C [Zotarolimus]
- Kd [1]: 2760 ± 178 nM
- inhibition at 1 µM [2]: 69.4%
- 1:1 Competition between compound vs CoV2 VLP [3]: 71.6% ± 6.47
